# Experimental data published in US20060069132A1, “Azolecarboxamide herbicides” (priority 2004, published 2006).
# Test system: corn (maize) cv. Pioneer 33G26
# Test: Test G safening on corn by naphthalic anhydride seed treatment, preemergence
# Format: in vivo, Zea mays
# Source text: This test evaluated the safening of compounds of the invention on corn (maize; Zea mays L.) cv. ‘Pioneer 33G26’ by seed treatment with naphthalic anhydride (1,8-naphthalic anhydride). All corn seed had been first treated with fludioxonil and metaxyl applied at the manufacturer's recommended rate as per the Pioneer 33G26 label. Some of the corn seed were subsequently also treated with naphthalic anhydride as a 1% by weight seed dressing. The corn seed were planted in pots containing pasteurized Sassafras sandy loam soil, and then treatments were applied preemergence the same day. Treatments were applied by spraying the test compounds formulated in a non-phytotoxic solvent mixture, using a flat fan nozzle and a spray volume of 280 L/ha. The treatments were triply replicated and the results subsequently averaged. The pots were placed on a greenhouse bench using a complete randomized block design except for the first replicate, which was unrandomized. The plants were grown in the greenhouse and watered as needed with a dilute nutrient solution containing 200 ppm of N. Illumination was daylight supplemented by artificial sources to maintaining a photoperiod of 16 hours. The temperature was maintained at 28±2° C. during the day and 23±2° C. at night. The plant response was visually rated 25 days after treatment in comparison to untreated controls using a scale of 0 to 100, with 0 representing no effect and 100 representing complete plant death.
structure (smiles),measurement,setting,value
"CCn1nc(C(C)(C)C)cc1C(=O)Nc1cc(C(=O)N(C)C)ccc1F [Compound 6, N-[5-[(dimethylamino)carbonyl]-2-fluorophenyl]-3-(1,1-dimethylethyl)-1-ethyl-1H-pyrazole-5-carboxamide]","Response of corn, With 1% naphthalic anhydride seed treatment",62 g a.i./ha,60
same,"Response of corn, Without naphthalic anhydride seed treatment",62 g a.i./ha,65
same,"Response of corn, With 1% naphthalic anhydride seed treatment",125 g a.i./ha,62
same,"Response of corn, Without naphthalic anhydride seed treatment",125 g a.i./ha,68
same,"Response of corn, With 1% naphthalic anhydride seed treatment",250 g a.i./ha,78
same,"Response of corn, Without naphthalic anhydride seed treatment",250 g a.i./ha,88
same,"Response of corn, With 1% naphthalic anhydride seed treatment",500 g a.i./ha,70
same,"Response of corn, Without naphthalic anhydride seed treatment",500 g a.i./ha,92
